Data set [1] is described as follows: Acute toxicity in the mouse by the I.P. route. The following applies: for LD50: read-out: DL-50 (lethal dose involving the death of half of the animals). In kind it is in vivo. The source says: The acute toxicity was studied in the mouse by the I.P. route. It is expressed in the form of DL-50 (lethal dose involving the death of half of the animals) or DL-0 (maximum non-lethal dose).

The nature of data set [2]: Anti-ulcer activity: ulcer caused by aspirin. It counts as in vivo, rat (male Wistar). To be noted: 100 mg/kg I.P.; aspirin 192 mg/kg per os; standardised to control batch and cimetidine (index 1). A digest of the protocol:
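Male Wistar rats weighing 180 to 200 g were fasted from t=0, when they received a first dose of the test product. At t=18 hours they were given 2 ml of an ulcer-forming suspension of aspirin at 192 mg/kg per os, followed by a second dose of the product. At t=22 hours the animals were sacrificed and their ulcers graded: 1 for small point-like, 3 for more extensive, 9 for highly extensive or very deep. Scores were standardised against a control batch and against cimetidine, the reference, assigned index 1.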

The test system of data set [3] is blood platelet aggregation. In words: Spontaneous aggregation: blood platelet anti-aggregation activity. It counts as in vivo, rat (adult male). To be noted: Platelet, t=5 hours, rat; for inhibition in vivo at 100 mg/kg: ip, 100 mg/kg I.P. Here is the method: The technique used is that of Sanders described in Laboratory Animal Science 27 (No. 5), pages 757-761 (1977).
After administration at 100 mg/kg I.P. (unless specified to the contrary in Table V hereinbelow) of the product to be tested to adult male reproducing rats, two blood samples are taken, one on sodium citrate and the other on sodium citrate treated with formaldehyde at instant t=5 hours.
After centrifugation of the samples, a platelet count is made on the supernatant liquid. The spontaneous aggregation index according to Wu and Hook Stroke 6, 521-524 (1975) is expressed by the relation: [formula]

Data set [4] can be described thus: Anti-hypoxic activity: survival to hypoxia (nitrogen-oxygen 95:5). In kind it is in vivo, mouse (Swiss male). The following applies: I.P., 1/10th of LD-50 or 100 mg/kg when LD-0 ≥ 800 mg/kg; up to 15 minutes; mouse. In a few lines:
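Groups of 20 male Swiss mice (20–30 g) received compound i.p. at 1/10 LD-50, or 100 mg/kg when LD-0 ≥800 mg/kg, then were placed in nitrogen-oxygen 95:5 v/v. Survival time was recorded up to 15 min and expressed as % survival versus untreated controls; Duxil reference given at 18 mg/kg i.p.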

Data set [5] is described as follows: Veinous thrombosis: veinous anti-thrombus activity. To be noted: Rattus norvegicus, ip, 100 mg/kg I.P., 4 to 5 hours after administration, read-out: Diminution of veinous thrombus. It counts as in vivo. Here is the method:
The technique used is similar to the one described by Peterson-Zucker in Thrombo.Diath.Haemorh. 23, 1, (1970).
An occlusive thrombus is created in the […] vena cava of a rat by the combined action of an endothelial alteration and a veinous stasis for 15 mins. and 4 to 5 hours after administration of the product to be tested (100 mg/kg I.P.).

A short description of data set [6]: Veinous thrombosis: veinous anti-thrombus activity. In kind it is in vivo. The following applies: Rattus norvegicus, ip, 50 mg/kg IP, 4 to 5 hours after administration, read-out: Diminution of veinous thrombus.

As for `CC(=O)N[C@H]1[C@H](Oc2ccc(C(=O)c3ccc(C(F)(F)F)cc3)cc2)O[C@H](CO)[C@@H](O)[C@@H]1O` [Example 118], in data set [1] (in vivo, ip), the “DL-0 (maximum non-lethal dose)” value was greater than 800 mg/kg IP. The compound also had a Ulcer index in data set [2] of 0.53. This compound also had an inhibition in vivo at 100 mg/kg in data set [3] of 25 to 39%. The “Survival (survival percentage to hypoxic aggression)” value in data set [4] is “++ (from 50 to 79%)”.
Turning to `CC(=O)N[C@H]1[C@H](Oc2ccc(C(=O)c3ccc(Cl)cc3)cc2)O[C@H](COS(=O)(=O)O)[C@@H](OS(=O)(=O)O)[C@@H]1OS(=O)(=O)O` [Example 67, [4-(4-chlorobenzoyl)-phenyl]-3,4,6-tri-(ammonium-sulfate)-2-N-acetyl-β-D-glucosaminide], the “DL-0 (maximum non-lethal dose)” value in data set [1] (I.P.) is on record as greater than 800 mg/kg IP. In data set [2], this compound had a Ulcer index of 0.81. Besides, the inhibition in vivo at 100 mg/kg in data set [3] fell in the range of 25 to 39%; in data set [5], 30 to 49%.
Consider `Cc1ccc(C(O)c2cccc(O[C@@H]3OC[C@@H](O)[C@H](O)[C@H]3O)c2)cc1` (single isomer, unassigned) [Example 106], for which, in data set [1] (in vivo, ip, I.P.), the LD50 was determined as 500 mg/kg. Further, in data set [6], the inhibition in vivo at 50 mg/kg was no less than 50%.
Turning to `Cc1cc(C(=O)c2ccccc2Cl)cc(C)c1O[C@@H]1OC[C@@H](O)[C@H](O)[C@H]1O` [Example 102], the “DL-0 (maximum non-lethal dose)” value in data set [1] (in vivo, ip) is recorded as greater than 800 mg/kg IP. Further, the Ulcer index in data set [2] worked out at 0.49. For the same compound, the inhibition in vivo at 100 mg/kg was no less than 40% in data set [3] and 30 to 49% in data set [5]. Further, the “Survival (survival percentage to hypoxic aggression)” value in data set [4] is “+++ (higher than or equal to 80%)”.
In the case of `Cc1ccc(C(=O)c2ccc(O[C@@H]3OC[C@@H](O)[C@H](O)[C@H]3O)cc2)cc1` [Example 12], in data set [1] (in vivo, ip), the “DL-0 (maximum non-lethal dose)” value is greater than 800 mg/kg IP. Besides, the Ulcer index in data set [2] turned out to be 0.26. Besides, the inhibition in vivo at 100 mg/kg in data set [3] was 25 to 39%. The “Survival (survival percentage to hypoxic aggression)” value in data set [4] is “++ (from 50 to 79%)”.
Regarding `O=C(c1ccc(O[C@@H]2OC[C@@H](O)[C@H](O)[C@H]2O)cc1)c1ccc([N+](=O)[O-])cc1` [Example 1, [4-(4-nitrobenzoyl)-phenyl]-β-D-xylopyranoside], in data set [1] (in vivo, ip), the “DL-0 (maximum non-lethal dose)” value is on record as greater than 800 mg/kg IP. Moreover, the Ulcer index in data set [2] came to 0.56. In data set [3], this compound displayed an inhibition in vivo at 100 mg/kg of no less than 40%. The “Survival (survival percentage to hypoxic aggression)” value in data set [4] is recorded as “+++ (higher than or equal to 80%)”.
Turning to `Cc1ccccc1C(=O)c1ccc(O[C@@H]2OC[C@@H](O)[C@H](O)[C@H]2O)cc1` [Example 14], in data set [1] (in vivo, ip, I.P.), the LD50 came to 740 mg/kg. In data set [3] (75 mg/kg IP), this compound yielded an inhibition in vivo at 75 mg/kg of no less than 40%. Moreover, the inhibition in vivo at 100 mg/kg in data set [5] was no less than 50%.
Consider `COc1ccc(C(=O)c2cccc(O[C@@H]3OC[C@@H](O)[C@H](O)[C@H]3O)c2)cc1` [Example 54], for which, in data set [1] (I.P.), the “DL-0 (maximum non-lethal dose)” value is given as greater than 800 mg/kg IP. In data set [2], the Ulcer index was found to be 0.57. The inhibition in vivo at 100 mg/kg in data set [3] is no less than 40%; in data set [5], 30 to 49%.
As to `CC(=O)O[C@@H]1[C@@H](OC(C)=O)[C@H](Oc2ccc(C(=O)c3ccc([N+](=O)[O-])cc3)cc2C)OC[C@H]1OC(C)=O` [Example 104], the “DL-0 (maximum non-lethal dose)” value in data set [1] (in vivo, ip) is given as greater than 800 mg/kg IP. The compound also registered a Ulcer index in data set [2] of 0.84. This compound showed an inhibition in vivo at 100 mg/kg in data set [3] of no less than 40%. For the same compound, the “Survival (survival percentage to hypoxic aggression)” value in data set [4] is on record as “++ (from 50 to 79%)”.
`Nc1ccc(C(=O)c2ccc(O[C@@H]3OC[C@@H](O)[C@H](O)[C@H]3O)cc2)cc1` [Example 8]: the “DL-0 (maximum non-lethal dose)” value in data set [1] (in vivo, ip) is on record as greater than 800 mg/kg IP. This compound yielded a Ulcer index in data set [2] of 0.25. In addition, the figures for the inhibition in vivo at 100 mg/kg in data set [3] and in data set [5] were no less than 40% and no less than 50%, respectively. The “Survival (survival percentage to hypoxic aggression)” value in data set [4] is listed as “+++ (higher than or equal to 80%)”.
Regarding `O=[N+]([O-])c1ccc(C(O)c2ccc(O[C@@H]3OC[C@@H](O)[C@H](O)[C@H]3O)cc2)cc1` (stereo partly drawn) [Example 97, [4-(4-nitro-α-hydroxybenzyl)-phenyl]-β-D-xylopyranoside], the LD50 in data set [1] (in vivo, ip, I.P.) is greater than 1000 mg/kg. The compound also gave a Ulcer index in data set [2] of 0.52. Moreover, the inhibition in vivo at 100 mg/kg was no less than 40% in data set [3] and no less than 50% in data set [5].

Values taken from patent US4432973A, “Benzoyl- and α-hydroxybenzyl-phenyl-glycosides and application thereof in therapeutics” (Societe de Recherches Industrielles (S.O.R.I.), priority 1980, dated 1984).
